“And” between values parts separate entries of the source, which are not always exact repeats. Equal values may be shown once. Read-outs that look alike come from different tables or passages of the source.
Columns and labels:
α-amylase [1] = molecular target: T1, α-amylase (Sus scrofa, UniProt P00690); test: α-Amylase inhibitory activity assay (Gal-G2-α-CNP substrate); format: biochemical; details: 37 °C, pH 6.8
T1 sequence (P00690 16-511): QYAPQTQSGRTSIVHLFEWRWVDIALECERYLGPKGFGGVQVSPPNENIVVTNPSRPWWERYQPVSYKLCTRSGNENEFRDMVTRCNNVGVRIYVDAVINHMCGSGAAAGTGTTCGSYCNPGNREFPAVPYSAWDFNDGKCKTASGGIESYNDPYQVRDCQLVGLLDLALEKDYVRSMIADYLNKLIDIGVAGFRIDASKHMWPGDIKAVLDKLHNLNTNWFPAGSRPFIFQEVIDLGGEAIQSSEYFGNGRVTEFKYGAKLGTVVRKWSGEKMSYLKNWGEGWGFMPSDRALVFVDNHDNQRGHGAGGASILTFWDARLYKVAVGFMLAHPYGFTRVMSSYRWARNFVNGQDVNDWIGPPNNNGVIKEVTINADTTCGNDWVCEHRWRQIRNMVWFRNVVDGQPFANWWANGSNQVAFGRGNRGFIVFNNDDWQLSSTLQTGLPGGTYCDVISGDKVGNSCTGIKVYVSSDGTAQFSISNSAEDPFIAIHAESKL
Protocol: The inhibitory activity detection process was slightly modified, with reference as the base method from the literature. […] After thorough mixing, the samples were pre-incubated at 37 °C for 10 min. Subsequently, 100 μL of 5 mmol/L Gal-G2-α-CNP substrate was added to each sample. Following a 3 min reaction period, the absorbance of the solutions at 405 nm was measured using a microplate reader. The inhibition rate (%) was calculated based on the absorbance readings according to Formula (1).(1) inhibition rate%=(1−(A1−A2)/(A3−A4))×100
In the formula, A1 represents the sample group; A2 represents the sample control group (where the enzyme was replaced with phosphate buffer); A3 represents the blank control group; and A4 represents the reagent blank control group (containing blank sample solution and phosphate buffer).
(§1) Using the enzyme inhibition rate as the y-axis and the inhibitor concentration as the x-axis, the IC50 value was calculated through linear regression fitting with GraphPad Prism software (5.0).

α-glucosidase [2] = molecular target: T2, α-glucosidase (Saccharomyces cerevisiae, UniProt P53341); test: α-Glucosidase inhibitory activity assay (pNPG substrate); format: biochemical; details: 37 °C
Protocol: The experimental groups were supplemented with different concentrations of porphyrin compounds, followed by the addition of 100 μL of 5 mmol/L pNPG. After thorough mixing, the samples were pre-incubated at 37 °C for 10 min. Subsequently, the reaction was terminated by adding 0.1 mol/L of sodium carbonate (Na2CO3) solution. Following a 3 min reaction period, the absorbance of the solutions at 405 nm was measured using a microplate reader. The inhibition rate (%) was subsequently calculated using Formula (1).
as §1

α-amylase [3] = molecular target: T1, α-amylase; test: In vitro stability study (temperature, pH), inhibition rate against α-amylase; format: physicochemical; details: water bath 30–100 °C, 20 min
Protocol: (§2) Samples of a certain mass concentration were subjected to a water bath at different temperatures (30, 40, 50, 60, 70, 80, 90, 100 °C) for 20 min and treated under different pH conditions (2.0, 3.0, 4.0, 5.0, 6.0, 7.0, 8.0, 9.0, and 10.0) for 20 min to determine the effect of temperature and pH on the stability of the two enzymes.

α-glucosidase [4] = molecular target: T2, α-glucosidase; test: In vitro stability study (temperature, pH), inhibition rate against α-glucosidase; format: physicochemical; details: water bath 30–100 °C, 20 min
Protocol: as §2

α-amylase [5] = molecular target: T1, α-amylase; test: FTIR secondary structure analysis of α-AMY complexes; details: enzyme–porphyrin molar ratio 1:2, amide I band
Source text: (§3) A molar ratio of 1:2 (α-amylase/α-glucosidase)–porphyrin solution was placed in a cryocentrifugal concentrator and the dried solid sample was mixed with dry KBr and measured using a Nicolet IS-50 FTIR Spectrometer (ThermoFisher, Waltham, MA, USA) with a scanning range of 4000–400 cm^−1 and a resolution of 4 cm^−1. The overlapping peaks in the amide I band (1700–1600 cm^−1) were further analyzed into multiple feature sub-peaks, and quantitative analysis of the relative content of various secondary structures in proteins using curve fitting methods was performed.

α-glucosidase [6] = molecular target: T2, α-glucosidase; test: FTIR secondary structure analysis of α-GLU complexes; details: enzyme–porphyrin molar ratio 1:2, amide I band
Source text: as §3

HepG2 cells = test: MTT cytotoxicity assay; format: cell-based, human; details: 24 h
Protocol: (§4) The cytotoxicity of six porphyrin compounds against human hepatocellular carcinoma HepG2 cells was evaluated using the MTT assay. HepG2 cells were seeded into 96-well plates at a density of 5000 cells per well and cultured for 24 h at 37 °C in a 5% CO2 incubator. Then, 100 µL of sample solutions at various concentrations (50, 100, and 200 µg/mL) was added to the experimental wells, with blank control wells and solvent control wells also included. The cells were further incubated for 24 h. After incubation, 10 µL of MTT solution (5 mg/mL) was added to each well, and the plates were incubated for another 4 h. Subsequently, 100 µL of Formazan solubilization solution was added to each well, followed by gentle mixing. The plates were returned to the incubator and maintained until complete dissolution of Formazan crystals was observed under a microscope. The absorbance at 570 nm was measured using a microplate reader (Meigu Molecular Instrument Company, Shanghai, China), and the survival rate of HepG2 cells was calculated.(12) Cell viability=As-Ab/Ac-Ab×100%
(§5) In the formula, As represents the absorbance of the sample well, Ac denotes the absorbance of the blank control well (without the drug), and Ab refers to the absorbance of the solvent control well (devoid of both cells and the drug).

MTT cytotoxicity assay = format: cell-based, human; details: human, HepG2 cells; for viability at 24 h: read-out: cell viability
Protocol: as §4, §5

T2 sequence (P53341 whole entry): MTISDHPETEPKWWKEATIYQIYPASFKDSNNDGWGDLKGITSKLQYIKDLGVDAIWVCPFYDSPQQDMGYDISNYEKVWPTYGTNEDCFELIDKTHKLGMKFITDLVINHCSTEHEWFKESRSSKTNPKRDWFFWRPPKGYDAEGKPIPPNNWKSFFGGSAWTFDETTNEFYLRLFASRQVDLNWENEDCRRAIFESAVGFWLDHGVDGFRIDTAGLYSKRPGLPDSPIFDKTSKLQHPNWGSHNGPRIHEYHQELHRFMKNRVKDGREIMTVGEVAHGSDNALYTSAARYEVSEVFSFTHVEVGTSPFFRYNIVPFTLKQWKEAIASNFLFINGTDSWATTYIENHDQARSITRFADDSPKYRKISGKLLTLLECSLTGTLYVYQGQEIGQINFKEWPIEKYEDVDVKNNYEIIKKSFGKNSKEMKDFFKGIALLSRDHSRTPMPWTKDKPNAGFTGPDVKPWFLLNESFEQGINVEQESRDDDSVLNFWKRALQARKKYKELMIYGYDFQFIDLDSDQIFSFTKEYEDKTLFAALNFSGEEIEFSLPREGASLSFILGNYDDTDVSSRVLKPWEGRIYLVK

| Compound | IC50 α-amylase (α-amylase [1]) [µg/mL] | IC50 α-GLU (α-glucosidase [2]) [µg/mL] | thermal stability: inhibition rate against α-amylase (α-amylase [3]) | thermal stability: inhibition rate against α-glucosidase (α-glucosidase [4]) | Random Coil (α-amylase [5]) | α-Helix (α-amylase [5]) [%] | β-Antiparallel (α-amylase [5]) | β-Sheet (α-amylase [5]) [%] | β-Turn (α-amylase [5]) [%] | Random Coil (α-glucosidase [6]) | α-Helix (α-glucosidase [6]) [%] | β-Antiparallel (α-glucosidase [6]) | β-Sheet (α-glucosidase [6]) [%] | β-Turn (α-glucosidase [6]) [%] | other results |
| --- | --- | --- | --- | --- | --- | --- | --- | --- | --- | --- | --- | --- | --- | --- | --- |
| O=C(O)c1ccc(-c2c3nc(c(-c4ccc(C(=O)O)cc4)c4ccc([nH]4)c(-c4ccc(C(=O)O)cc4)c4nc(c(-c5ccc(C(=O)O)cc5)c5ccc2[nH]5)C=C4)C=C3)cc1.[Cu+2] [Cu–TCPP, copper (II) meso-tetra (4-carboxyphenyl)porphyrin] | 245.04 ± 0.26 | 25.33 ± 0.55 | small fluctuations | remained relatively stable | 20.94 ± 0.06% | 20.76 ± 0.05 | 12.17 ± 0.02% | 10.94 ± 0.01 | 35.19 ± 0.06 | 25.05 ± 0.07% | 23.65 ± 0.03 | 2.59 ± 0.01% | 10.93 ± 0.05 | 37.78 ± 0.09 | cell viability (survival rate) (HepG2 cells; HepG2, 200 μg/mL): 43.13 ± 5.53%; cell viability (HepG2 cells; HepG2, 50–100 μg/mL): above 80% |
| O=C(O)c1ccc(-c2c3nc(c(-c4ccc(C(=O)O)cc4)c4ccc([nH]4)c(-c4ccc(C(=O)O)cc4)c4nc(c(-c5ccc(C(=O)O)cc5)c5ccc2[nH]5)C=C4)C=C3)cc1.[Ni+2] [Ni–TCPP, nickel (II) meso-tetra (4-carboxyphenyl) porphine] | 156.26 ± 0.48 | 6.58 ± 0.21 | small fluctuations | remained relatively stable | 21.40 ± 0.05% | 20.76 ± 0.06 | 10.30 ± 0.03% | 11.20 ± 0.02 | 36.33 ± 0.13 | 26.76 ± 0.07% | 19.75 ± 0.07 | 1.88 ± 0.01% | 13.68 ± 0.04 | 37.94 ± 0.10 | cell viability (HepG2 cells; HepG2, 50–200 μg/mL): above 88% |
| Nc1ccc(-c2c3nc(c(-c4ccc(N)cc4)c4ccc([nH]4)c(-c4ccc(N)cc4)c4nc(c(-c5ccc(N)cc5)c5ccc2[nH]5)C=C4)C=C3)cc1 [TAPP] |  |  |  |  | 9.94% and 9.94 ± 0.02% | 22.45 ± 0.07 | 18.98% and 18.98 ± 0.04% | 14.62 ± 0.03 | 34.00 ± 0.09 | 23.93 ± 0.05% | 22.82 ± 0.08 | 1.96 ± 0.01% | 12.99 ± 0.13 | 38.30 ± 0.08 | viability at 24 h (MTT cytotoxicity assay; HepG2, 50–200 μg/mL): > 97% |
| O=C(O)c1ccc(-c2c3nc(c(-c4ccc(C(=O)O)cc4)c4ccc([nH]4)c(-c4ccc(C(=O)O)cc4)c4nc(c(-c5ccc(C(=O)O)cc5)c5ccc2[nH]5)C=C4)C=C3)cc1 [TCPP] |  |  | small fluctuations | remained relatively stable | 19.84 ± 0.06% | 10.24 ± 0.02 | 11.75 ± 0.03% | 18.51 ± 0.05 | 39.66 ± 0.09 | 22.15 ± 0.04% | 22.71 ± 0.05 | 9.57 ± 0.02% | 12.03 ± 0.02 | 33.54 ± 0.07 | viability at 24 h, 200 µg/mL (MTT cytotoxicity assay; HepG2, 200 μg/mL, read-out: cell viability (survival rate)): 30.3 ± 3.45%; viability at 24 h (MTT cytotoxicity assay; HepG2, 50–100 μg/mL): > 80% |
| Oc1ccc(-c2c3nc(c(-c4ccc(O)cc4)c4ccc([nH]4)c(-c4ccc(O)cc4)c4nc(c(-c5ccc(O)cc5)c5ccc2[nH]5)C=C4)C=C3)cc1 [THPP] |  |  | small fluctuations | remained relatively stable | 17.71 ± 0.07% | 22.24 ± 0.06 | 13.37 ± 0.03% | 12.92 ± 0.05 | 33.76 ± 0.08 | 23.74 ± 0.06% | 21.19 ± 0.05 | 7.07 ± 0.01% | 12.79 ± 0.03 | 35.20 ± 0.11 | cytotoxicity (in words) (HepG2 cells; HepG2, 50–200 μg/mL): certain cytotoxic effects |
| iron (III) meso-tetra (4-carboxyphenyl) porphyrin chloride [Fe–TCPP] | 95.75 ± 0.62 | 23.93 ± 0.53 | small fluctuations | remained relatively stable | 22.59 ± 0.03% | 21.77 ± 0.07 | 8.76 ± 0.02% | 12.86 ± 0.04 | 34.02 ± 0.08 | 16.75% and 16.75 ± 0.03% | 22.48 ± 0.05 | 8.02% and 8.02 ± 0.02% |  |  |  |
